Measurements reported in article PMC8347148, “An Evaluation of Human Induced Pluripotent Stem Cells to Test for Cardiac Developmental Toxicity” (International Journal of Molecular Sciences, 2021).

Legend:
[1] = maximum plasma concentration, human exposure; cited from earlier work
[2] = system: RIV9 hiPSC-derived cardiomyocytes; assay: hiPSC-EST cardiac contractile assay (count of contracting cardiomyocyte clusters); assay type: cell-based, human; conditions: for hiPSC ID50: day 25, 50% inhibition of functional (contracting) cardiomyocytes vs control; for doses with reduced contractile activity / incidence: Figure 3
Description: The hiPSC cell line RIV9 was obtained from the Stem Cell Core at the University of California, Riverside. hiPSCs were seeded on Matrigel (Corning, Glendale, AZ, USA)-coated tissue culture plates and maintained in a pluripotent state in mTeSR® medium (Stem Cell Technologies, Seattle, WA, USA). Cells were cultured under a humidified atmosphere of 5% CO2 at 37 °C and passaged for maintenance or to seed for experiments approximately every 5 days as previously described.
After cells reached 70% confluency (designated day 0), the medium was changed to control differentiation medium supplemented with 0.06 mg/mL ascorbic acid (Sigma-Aldrich, St. Louis, MO, USA) to induce cardiac differentiation. Control differentiation medium was comprised of Dulbecco’s modified Eagle’s medium (DMEM with 4.5 g/L glucose, L-glutamine and sodium pyruvate; Corning) supplemented with 18% FBS (PAA), 0.8% penicillin/streptomycin (10,000 units/10,000 units, Gibco, ThermoFisher Scientific, Grand Island, NY, USA), 0.12% non-essential amino acids (NEAA; Gibco), and 0.1 mM β-mercaptoethanol (Gibco). Cultures were cultured in differentiation media for 25 days, starting from day 0.
5-flurorouracil (5-FU), all-trans retinoic acid (atRA), and penicillin G (PenG) were selected from a subset of chemicals used in the original EST validation study. 5-FU and atRA were selected as positive test compounds due to their established embryotoxic potential while PenG was used as a negative control. All chemicals were purchased from Sigma. Stock solutions were prepared in DMSO and filtered through a 0.2 micron Acrodisc® PSF Syringe Filter (Pall Corporation, Port Washington, NY, USA), aliquoted into sterile microcentrifuge tubes and stored at −20 °C until use. Test chemicals were serially diluted to final concentrations in differentiation media. Cardiogenic cultures were treated with designated chemicals (or solvent only) through day 25 of differentiation and hFF cultures were treated with each compound for a 25 day duration period. Compounds were replenished with each medium change.
A University of Kentucky smoking machine was used to produce smoke extract solutions from commercially available conventional Marlboro Red 100 brand cigarettes as previously described. The smoking machine took a 2.2 s puff of mainstream (MS) smoke every minute. Smoke solution concentrations were made in puff equivalents (PE), which are the number of cigarette puffs dissolved in 1 mL of medium. MS smoke solutions were produced by pulling 30 puffs of MS smoke through 10 mL of DMEM. Resulting 3 PE smoke extracts were filtered through a 0.2 micron Acrodisc® PSF Syringe Filter (Pall Corporation, Port Washington, NY, USA), aliquoted into sterile microcentrifuge tubes, and stored at −80 °C until use. Serial dilutions were performed in differentiation medium to reach desired final exposure concentrations. Cardiogenic cultures were treated with smoke solutions through 25 days of differentiation. Smoke solutions were replenished with each medium change.
A 10% (w/v) Camel Snus extract was prepared as previously described. Ten grams of Snus was added to 85 mL of DMEM and allowed to incubate at 37 °C for 2 h. This initial extract solution was centrifuged for 10 min at 4500× g. Supernatant from the first round of centrifugation was then centrifuged again at 13,000× g for 1 h. The resulting supernatant was collected and pH adjusted to 7.4. 15 mL of FBS was added to the pH-adjusted Snus extract to produce a 10% stock solution of Snus tobacco extract (STE). The stock solution was then sterile-filtered with a 0.22 μm vacuum filter system. STE was aliquoted into sterile microcentrifuge tubes and stored at −80 °C until use. Serial dilutions were performed in differentiation medium to reach desired final exposure concentrations. Cardiogenic cultures were treated with STE through 25 days of differentiation. STE was replenished with each medium change. […]

Compound | Cmax [1] | concentrations that negatively impacted the formation of contractile structures ([2]; by day 20, Figure 2) | hiPSC ID50 [2] [ng/mL] | effect on formation of contractile structures [2] | doses with reduced contractile activity / incidence [2] | increase in contractile cluster incidence ([2]; 1 × 10^−8 μg/mL) [fold] | concentrations at which cells failed to form contractile clusters ([2]; Figure 2)
O=c1[nH]cc(F)c(=O)[nH]1 [5-Fluorouracil, 5-fluorouracil] | 0.94 [13] μg/mL | above 1 × 10^−6 μg/mL | 0.00229 |  |  |  | 
CC1(C)S[C@@H]2[C@H](NC(=O)Cc3ccccc3)C(=O)N2[C@H]1C(=O)O [Penicillin G, penicillin G] | 134.6 [12] μg/mL |  | 739900 | did not inhibit the formation of contractile structures | > 700 µg/mL |  | 
CC1=C(/C=C/C(C)=C/C=C/C(C)=C/C(=O)O)C(C)(C)CCC1 [All-Trans Retinoic Acid, all-trans retinoic acid] | 0.155–0.294 [13] μg/mL |  | 0.000933 |  | above 1 × 10^−8 μg/mL | ~2 | above 1 × 10^−3 μg/mL
